Reference: US7119189B2, “Metabotropic GABA [B] receptors, receptor-specific ligands and their uses” (Novartis AG, priority 1997, dated 2006)
“Also recorded” adds a separate entry of the source. Read-outs that look alike come from different tables or passages of the source.

Key:
[1] = test system: native GABAB receptors (130K and 100K proteins); conditions: for [125I]CGP71872 labelling in the presence of excess unlabelled antagonist: 1 μM (10^−6 M) competitor; for competition with / displacement of [125I]CGP71872 at native receptors: FIG. 4b
Experimental: The incubation is terminated by centrifugation at 20 000×g for 10 min at 4° C. This step removed free unbound photoaffinity label. […] The suspension is centrifuged at 20 000×g for 10 min and resuspended at a concentration of 8 mg/ml protein in buffer. […] The labelled membranes could be stored at −80° C.

[2] = molecular target: T1, recombinant GABABR1a receptors in membranes from COS 1 cells (Rattus norvegicus, UniProt Q9Z0U4); assay: biochemical; assay type: binding
T1 construct: The protein expressed from the 4,376 bp cDNA clone has an apparent molecular mass of about 120 kDa; expressed in transfected cells; host or cells: COS1 cells, transient transfection with the cDNA clone in pcDNAI

GABABR1a = molecular target: T2, GABABR1a (Rattus norvegicus, UniProt Q9Z0U4); assay: Forskolin-stimulated cAMP accumulation in HEK293 cells stably expressing GABABR1a; assay type: cell-based
T2 construct: The ability of GABABR1a stably expressed in HEK293 cells to reduce forskolin-stimulated cAMP accumulation is analysed; expressed in transfected cells
Experimental: HEK293 cells stably expressing GABABR1a are treated with 20 μM forskolin (Fsk) to stimulate cAMP formation (100%). […] Bars represent mean values+S.E.M. of at least three independent experiments performed in quadruplicate.
GABAB receptors are described to inhibit adenylate cyclase activity, stimulate phospholipase A2, activate K^+-channels, inactivate voltage-dependent Ca^2+-channels and to modulate inositol phospholipid hydrolysis. As GABABR1a and -b have identical sequence in all domains predicted to be intracellular they are expected to be able to couple to the same effector systems. […] The ability of GABABR1a stably expressed in HEK293 cells to reduce forskolin-stimulated cAMP accumulation is analysed (FIG. 5). We chose concentrations of forskolin and L-baclofen that should produce a maximal effect.

[3] = test system: non-transfected HEK293 cells; assay: Forskolin-stimulated cAMP formation in untransfected HEK293 cells (control); assay type: cell-based
[4] = test system: GABAA, benzodiazepine, kainate, AMPA, NMDA receptors, strychnine independent binding site at NMDA receptors, muscarinic cholinergic, α1- and α2-adrenergic …; assay: Receptor selectivity assays at 1 μM; conditions: concentration of 1 μM
Experimental: […]. The incubation is terminated by filtration through GF/B Whatman glass fibre filters. […]. The compound is therefore selective for GABAB receptors. […].

[5] = molecular target: GABAB receptors in membranes from rat cerebral cortex (Rattus norvegicus, UniProt Q9Z0U4); assay: biochemical; assay type: binding
Sequence of GABAB receptors in membranes from rat cerebral cortex (Q9Z0U4 164-960 limits assumed): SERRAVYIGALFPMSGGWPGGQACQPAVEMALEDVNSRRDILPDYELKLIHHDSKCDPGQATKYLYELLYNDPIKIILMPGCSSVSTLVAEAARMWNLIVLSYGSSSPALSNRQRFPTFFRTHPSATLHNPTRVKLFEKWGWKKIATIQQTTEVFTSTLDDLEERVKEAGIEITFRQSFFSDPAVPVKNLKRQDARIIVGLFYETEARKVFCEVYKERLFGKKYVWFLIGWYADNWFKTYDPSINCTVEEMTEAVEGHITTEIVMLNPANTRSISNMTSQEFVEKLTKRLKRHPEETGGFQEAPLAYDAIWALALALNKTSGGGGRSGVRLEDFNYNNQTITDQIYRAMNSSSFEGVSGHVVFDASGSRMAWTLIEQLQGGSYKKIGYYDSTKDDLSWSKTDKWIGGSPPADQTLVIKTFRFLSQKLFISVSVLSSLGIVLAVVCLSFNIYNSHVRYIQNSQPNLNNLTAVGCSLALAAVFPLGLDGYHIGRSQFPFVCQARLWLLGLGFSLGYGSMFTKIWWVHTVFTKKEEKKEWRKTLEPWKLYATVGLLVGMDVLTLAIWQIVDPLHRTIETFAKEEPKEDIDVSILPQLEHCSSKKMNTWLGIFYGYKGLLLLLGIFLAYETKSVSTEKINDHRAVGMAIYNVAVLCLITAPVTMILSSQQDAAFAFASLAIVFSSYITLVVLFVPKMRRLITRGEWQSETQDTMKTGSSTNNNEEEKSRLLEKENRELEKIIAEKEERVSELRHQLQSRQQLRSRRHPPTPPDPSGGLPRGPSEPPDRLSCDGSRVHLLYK
Sequence of GABAB receptors in membranes from rat cerebral cortex (O88871 41-940, further chain): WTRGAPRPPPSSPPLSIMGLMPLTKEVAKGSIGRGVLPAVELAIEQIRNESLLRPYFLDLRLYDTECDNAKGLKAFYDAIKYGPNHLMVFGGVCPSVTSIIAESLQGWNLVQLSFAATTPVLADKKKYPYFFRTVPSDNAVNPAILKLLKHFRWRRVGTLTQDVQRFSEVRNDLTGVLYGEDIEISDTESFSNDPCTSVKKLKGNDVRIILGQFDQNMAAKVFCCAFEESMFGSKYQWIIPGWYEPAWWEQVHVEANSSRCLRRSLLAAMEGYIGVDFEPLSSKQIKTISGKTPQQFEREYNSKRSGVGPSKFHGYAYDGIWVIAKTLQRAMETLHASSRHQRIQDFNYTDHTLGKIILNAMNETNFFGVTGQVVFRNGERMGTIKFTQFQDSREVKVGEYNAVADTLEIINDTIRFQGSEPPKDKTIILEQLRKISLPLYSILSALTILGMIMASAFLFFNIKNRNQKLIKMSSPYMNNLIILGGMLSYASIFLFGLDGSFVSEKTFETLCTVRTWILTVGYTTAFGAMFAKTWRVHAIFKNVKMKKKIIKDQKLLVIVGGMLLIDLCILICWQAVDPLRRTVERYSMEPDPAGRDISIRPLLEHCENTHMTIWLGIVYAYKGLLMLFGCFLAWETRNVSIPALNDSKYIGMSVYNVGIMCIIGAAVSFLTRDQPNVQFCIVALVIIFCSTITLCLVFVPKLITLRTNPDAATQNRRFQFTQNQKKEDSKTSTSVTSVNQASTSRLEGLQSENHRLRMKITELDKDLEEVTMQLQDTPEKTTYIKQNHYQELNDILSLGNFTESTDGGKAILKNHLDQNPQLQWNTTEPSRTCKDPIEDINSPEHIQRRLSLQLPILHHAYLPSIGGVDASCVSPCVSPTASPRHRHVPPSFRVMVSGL

T2 sequence (Q9Z0U4 20-960): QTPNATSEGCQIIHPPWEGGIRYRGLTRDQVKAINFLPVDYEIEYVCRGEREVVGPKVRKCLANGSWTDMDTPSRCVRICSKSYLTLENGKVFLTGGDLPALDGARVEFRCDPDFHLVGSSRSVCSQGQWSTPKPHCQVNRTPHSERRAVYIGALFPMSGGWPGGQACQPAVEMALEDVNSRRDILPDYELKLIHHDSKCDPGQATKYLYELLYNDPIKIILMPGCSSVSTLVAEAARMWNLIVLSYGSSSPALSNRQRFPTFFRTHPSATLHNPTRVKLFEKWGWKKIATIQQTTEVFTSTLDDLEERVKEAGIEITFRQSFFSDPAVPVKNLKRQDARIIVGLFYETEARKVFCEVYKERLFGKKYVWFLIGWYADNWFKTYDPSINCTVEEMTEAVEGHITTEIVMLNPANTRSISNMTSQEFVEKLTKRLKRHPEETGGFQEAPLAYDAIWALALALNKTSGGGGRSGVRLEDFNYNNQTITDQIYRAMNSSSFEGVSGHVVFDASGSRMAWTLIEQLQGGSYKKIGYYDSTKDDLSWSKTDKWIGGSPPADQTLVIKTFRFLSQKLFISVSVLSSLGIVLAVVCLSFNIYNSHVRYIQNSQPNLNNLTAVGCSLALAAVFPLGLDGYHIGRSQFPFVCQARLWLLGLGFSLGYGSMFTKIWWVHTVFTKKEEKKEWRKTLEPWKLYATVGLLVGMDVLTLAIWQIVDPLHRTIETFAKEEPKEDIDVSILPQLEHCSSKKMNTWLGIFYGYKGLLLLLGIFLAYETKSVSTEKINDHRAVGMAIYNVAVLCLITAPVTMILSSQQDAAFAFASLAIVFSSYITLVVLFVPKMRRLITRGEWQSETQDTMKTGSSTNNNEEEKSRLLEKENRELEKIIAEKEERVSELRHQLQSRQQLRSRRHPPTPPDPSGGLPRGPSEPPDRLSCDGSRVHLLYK
T1 sequence (Q9Z0U4 20-960): as above

## C[C@H](NC[C@H](O)CP(=O)(O)CC1CCCCC1)c1ccc(Cl)c(Cl)c1 [CGP 54626A]
[1]
  [125I]CGP71872 labelling in the presence of excess unlabelled antagonist: no radioactivity is bound to the membranes
  competition with / displacement of [125I]CGP71872 at native receptors: effective displacers
[1]; listed as CGP54626A
  [125I]CGP71872 labelling in the presence of excess unlabelled antagonist: inhibited
[2]; recombinant GABABR1a expressed in COS1 cells, read-out: Inhibition of [125I]CGP 64213 binding, COS1 cells IC50
  IC50: 0.0016 µM
GABABR1a; 10 μM CGP54626A (FIG. 5), 300 μM L-baclofen
  effect on the L-baclofen inhibition of cAMP accumulation: antagonised

## NC[C@H](CC(=O)O)c1ccc(Cl)cc1 [L-baclofen]
[3]
  inhibition of forskolin-stimulated cAMP formation in untransfected cells: does not inhibit; also recorded: No L-baclofen response

## pertussis toxin
GABABR1a; 10 ng/ml for 15–20 h
  effect of preincubation on the L-baclofen response / modulation of adenylate cyclase: sensitive; also recorded: completely abolishes the effect of L-baclofen

## C[C@@H](NC[C@H](O)CP(=O)(O)CCCCCNC(=O)CCc1ccc(O)c(I)c1)c1cccc(C(=O)O)c1 [CGP 64213]
[4]
  activity in other receptor assays: inactive

## NCCC[PH](=O)O [CGP 27492 (APPA), 3-aminopropyl-phosphinic acid]
[1]
  competition with / displacement of [125I]CGP71872 at native receptors: compete

## CCOC(OCC)P(=O)(O)CCCN [CGP 35348]
[1]
  competition with / displacement of [125I]CGP71872 at native receptors: effective displacers
[2]
  IC50: 20 µM
[5]
  IC50: 9.3 µM
